Measured values: ChEMBL document CHEMBL5365497, “Developing Novel Coumarin-Containing Azoles Antifungal Agents by the Scaffold Merging Strategy for Treating Azole-Resistant Candidiasis” (J Med Chem, 2023)
Converted amounts (≈) assume the structure as drawn. The source made the active and inactive calls. No cut-off for these calls is given here.

What was measured:
[1] = tested on: Candida albicans; assay: Antifungal activity against Candida albicans SC5314 infected in ICR mouse assessed as reduction in fungal kidney burden by measuring CFU at 0.6 mg/kg, ip measured after 5 days; assay type: functional, organism-based; conditions: time 5.0 day
[2] = tested on: Candida albicans; assay: Antifungal activity against fluconazole-resistant Candida albicans 17# assessed as fungal growth inhibition by CLSI based microdilution method; assay type: functional
[3] = Cytotoxicity against human MRC5 cells assessed as cell growth inhibition by MTT assay; assay type: toxicity, cell-based
[4] = Subacute toxicity in female KM mouse assessed as kidney damage at 100 mg/kg administered via gavage daily for 7 days; assay type: organism-based; conditions: in vivo, po, 168 h, time 7 day
[5] = tested on: Candida albicans; assay: Antifungal activity against fluconazole-resistant Candida albicans 632 assessed as fungal growth inhibition by CLSI based microdilution method; assay type: functional
[6] = biological target: Lanosterol 14-alpha demethylase (Candida albicans (strain SC5314 / ATCC MYA-2876) (Yeast), UniProt P10613); assay: Inhibition of CYP51 in Candida albicans SC5314 assessed as increase in eburicol level at 0.03125 ug/ml incubated for 24 hrs by GC-MS analysis; conditions: at 0.03125 µg/mL
[7] = tested on: Candida albicans; assay: Antifungal activity against Candida albicans CPCC400616 assessed as reduction in ALS3 expression at 2 ug/ml incubated for 12 hrs by RT-PCR analysis; assay type: functional, organism-based; conditions: dose 2.0 µg/ml
[8] = tested on: Candida albicans; assay: Antifungal activity against Candida albicans SC5314 assessed as destruction of cell wall at 16 ug/ml incubated for 24 hrs by TEM analysis; assay type: functional, organism-based; conditions: dose 16.0 µg/ml
[9] = biological target: Cytochrome P450 2C9 (Homo sapiens, UniProt P11712); assay: Inhibition of CYP2C9 in human liver microsomes using diclofenac as substrate preincubated for 5 mins followed by NADPH addition by LC-MS/MS analysis; assay type: ADME, Microsome
[10] = tested on: Candida albicans; assay: Antifungal activity against fluconazole-resistant Candida albicans 904 assessed as fungal growth inhibition by CLSI based microdilution method; assay type: functional
[11] = tested on: Cryptococcus neoformans; assay: Antifungal activity against Cryptococcus neoformans assessed as fungal growth inhibition by CLSI based microdilution method; assay type: functional
[12] = Subacute toxicity in male KM mouse assessed as kidney damage at 100 mg/kg administered via gavage daily for 14 days; assay type: organism-based; conditions: in vivo, po, 336 h, time 14 day
[13] = tested on: Candida albicans; assay: Antifungal activity against fluconazole-resistant Candida albicans 904 assessed as decrease in ERG11 expression at 16 ug/ml measured after 16 hrs by RT-PCR analysis; assay type: functional, organism-based; conditions: dose 16.0 µg/ml
[14] = tested on: Candida albicans; assay: Antifungal activity against fluconazole-resistant Candida albicans 904 assessed as inhibition of yeast to hypha morphological transition at 16 ug/ml incubated for 4 hrs by inverted microscopy; assay type: functional, organism-based; conditions: dose 16.0 µg/ml
[15] = tested on: Candida albicans; assay: Antifungal activity against Candida albicans CPCC400616 assessed as reduction in CPH1 expression at 2 ug/ml incubated for 12 hrs by RT-PCR analysis; assay type: functional, organism-based; conditions: dose 2.0 µg/ml
[16] = tested on: Candida albicans; assay: Antifungal activity against Candida albicans CPCC400616 assessed as fungal growth inhibition by CLSI based microdilution method; assay type: functional
[17] = tested on: Candida albicans; assay: Induction of ROS production in fluconazole-resistant Candida albicans 904 at 64 ug/ml incubated for 30 mins by fluorescence microscopy; assay type: functional, organism-based; conditions: dose 64.0 µg/ml
[18] = tested on: Candida albicans; assay: Antifungal activity against fluconazole-resistant Candida albicans 904 assessed as decrease in CDR2 expression at 16 ug/ml measured after 16 hrs by RT-PCR analysis; assay type: functional, organism-based; conditions: dose 16.0 µg/ml
[19] = tested on: Candida albicans; assay: Antifungal activity against fluconazole-resistant Candida albicans 904 assessed as reduction in […] cell count at 16 times MIC incubated for 24 hrs by time-kill assay (reference value: 4 log10CFU/mL); assay type: functional
[20] = tested on: Candida parapsilosis; assay: Antifungal activity against Candida parapsilosis assessed as fungal growth inhibition by CLSI based microdilution method; assay type: functional; conditions: Lodderomyces parapsilosis
[21] = tested on: Candida albicans; assay: Antifungal activity against Candida albicans SC5314 assessed as fungal growth inhibition by CLSI based microdilution method; assay type: functional
[22] = tested on: Candida albicans; assay: Antifungal activity against fluconazole-resistant Candida albicans 904 assessed as decrease in CDR1 expression at 16 ug/ml measured after 16 hrs by RT-PCR analysis; assay type: functional, organism-based; conditions: dose 16.0 µg/ml
[23] = tested on: Candida albicans; assay: Antifungal activity against Candida albicans CPCC400616 assessed as inhibition of yeast to hypha morphological transition at 2 ug/ml incubated for 4 hrs by inverted microscopy; assay type: functional, organism-based; conditions: dose 2.0 µg/ml
[24] = biological target: Cytochrome P450 2C19 (Homo sapiens, UniProt P33261); assay: Inhibition of CYP2C19 in human liver microsomes using […] as substrate preincubated for 5 mins followed by NADPH addition by LC-MS/MS analysis; assay type: ADME, Microsome
[25] = biological target: T1, Cytochrome P450 1A2 (Homo sapiens, UniProt P05177); assay: Inhibition of CYP1A2 in human liver microsomes using phenacetin as substrate preincubated for 5 mins followed by NADPH addition by LC-MS/MS analysis; assay type: ADME, Microsome
T1 sequence (P05177 whole entry): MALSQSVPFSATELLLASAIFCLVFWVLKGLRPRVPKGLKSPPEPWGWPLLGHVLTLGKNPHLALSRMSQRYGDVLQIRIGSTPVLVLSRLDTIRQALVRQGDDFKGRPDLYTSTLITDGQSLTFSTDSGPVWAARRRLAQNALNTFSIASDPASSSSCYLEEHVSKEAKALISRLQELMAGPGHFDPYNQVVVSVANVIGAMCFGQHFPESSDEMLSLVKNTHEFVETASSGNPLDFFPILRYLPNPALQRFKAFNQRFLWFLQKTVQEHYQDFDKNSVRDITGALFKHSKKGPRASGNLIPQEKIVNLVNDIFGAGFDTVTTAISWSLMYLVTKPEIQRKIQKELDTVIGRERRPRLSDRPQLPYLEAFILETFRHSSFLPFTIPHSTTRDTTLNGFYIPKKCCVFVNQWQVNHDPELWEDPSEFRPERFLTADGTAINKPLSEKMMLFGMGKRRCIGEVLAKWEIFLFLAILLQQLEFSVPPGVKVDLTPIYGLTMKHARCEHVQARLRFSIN

[26] = Subacute toxicity in female KM mouse assessed as kidney inflammation at 100 mg/kg administered via gavage daily for 7 days; assay type: organism-based; conditions: in vivo, po, 168 h, time 7 day
[27] = Stability in mouse plasma assessed as compound remaining at 1 uM measured for 180 mins by LC-MS/MS analysis; assay type: ADME, cell-free; conditions: read-out: Stability
[28] = Metabolic stability in mouse liver microsomes assessed as half life incubated for 5 to 60 mins by LC-MS/MS analysis; assay type: ADME, Microsome; conditions: time 5-60 min
[29] = tested on: Candida albicans; assay: Antibiofilm activity against fluconazole-resistant Candida albicans 904 incubated for 24 hrs by XTT reduction assay; assay type: functional, organism-based; conditions: dose <= 128.0 µg/ml
[30] = tested on: Candida albicans; assay: Antifungal activity against Candida albicans SC5314 assessed as cell lysis at 16 ug/ml incubated for 24 hrs by TEM analysis; assay type: functional, organism-based; conditions: dose 16.0 µg/ml
[31] = tested on: Candida albicans; assay: Antifungal activity against fluconazole-resistant Candida albicans 904 assessed as reduction in ALS3 expression at 16 ug/ml incubated for 12 hrs by RT-PCR analysis; assay type: functional, organism-based; conditions: dose 16.0 µg/ml
[32] = Subacute toxicity in male KM mouse assessed as focal infiltration of lymphocytes in kidney at 100 mg/kg administered via gavage daily for 7 days; assay type: organism-based; conditions: in vivo, po, 168 h, time 7 day
[33] = Subacute toxicity in KM mouse assessed as abnormal behaviour at 100 mg/kg administered via gavage daily for 14 days; assay type: organism-based; conditions: in vivo, po, 336 h, time 14 day
[34] = tested on: Pichia kudriavzevii; assay: Antifungal activity against Pichia kudriavzevii assessed as fungal growth inhibition by CLSI based microdilution method; assay type: functional

Cytochrome P450 2C9, sequence (P11712 whole entry): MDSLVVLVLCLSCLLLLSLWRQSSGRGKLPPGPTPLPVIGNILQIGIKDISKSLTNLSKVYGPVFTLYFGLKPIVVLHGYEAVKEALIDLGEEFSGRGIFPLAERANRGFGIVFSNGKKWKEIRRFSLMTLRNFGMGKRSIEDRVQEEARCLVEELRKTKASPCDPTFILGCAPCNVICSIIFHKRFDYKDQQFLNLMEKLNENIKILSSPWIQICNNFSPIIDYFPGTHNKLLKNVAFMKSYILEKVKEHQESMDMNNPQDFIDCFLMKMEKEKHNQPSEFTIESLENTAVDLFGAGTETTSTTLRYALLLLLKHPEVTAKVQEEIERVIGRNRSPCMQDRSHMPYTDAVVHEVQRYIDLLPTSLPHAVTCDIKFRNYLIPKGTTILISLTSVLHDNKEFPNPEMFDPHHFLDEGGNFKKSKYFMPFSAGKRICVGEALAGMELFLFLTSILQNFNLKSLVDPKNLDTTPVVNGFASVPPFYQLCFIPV
Cytochrome P450 2C19, sequence (P33261 whole entry): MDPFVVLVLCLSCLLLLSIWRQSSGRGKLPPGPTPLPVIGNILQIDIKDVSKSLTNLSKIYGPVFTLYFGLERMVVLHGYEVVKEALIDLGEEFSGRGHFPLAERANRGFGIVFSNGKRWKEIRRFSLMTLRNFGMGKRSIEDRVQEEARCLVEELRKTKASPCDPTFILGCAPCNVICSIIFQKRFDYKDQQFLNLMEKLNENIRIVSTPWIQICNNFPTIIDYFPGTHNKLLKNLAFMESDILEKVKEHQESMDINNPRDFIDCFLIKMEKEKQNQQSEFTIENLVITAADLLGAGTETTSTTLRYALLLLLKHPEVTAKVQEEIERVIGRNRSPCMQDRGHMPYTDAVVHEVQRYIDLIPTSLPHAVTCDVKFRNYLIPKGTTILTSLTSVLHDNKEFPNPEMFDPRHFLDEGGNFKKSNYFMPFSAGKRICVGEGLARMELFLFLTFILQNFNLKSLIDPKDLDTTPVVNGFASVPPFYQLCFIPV
Lanosterol 14-alpha demethylase, sequence (P10613 whole entry): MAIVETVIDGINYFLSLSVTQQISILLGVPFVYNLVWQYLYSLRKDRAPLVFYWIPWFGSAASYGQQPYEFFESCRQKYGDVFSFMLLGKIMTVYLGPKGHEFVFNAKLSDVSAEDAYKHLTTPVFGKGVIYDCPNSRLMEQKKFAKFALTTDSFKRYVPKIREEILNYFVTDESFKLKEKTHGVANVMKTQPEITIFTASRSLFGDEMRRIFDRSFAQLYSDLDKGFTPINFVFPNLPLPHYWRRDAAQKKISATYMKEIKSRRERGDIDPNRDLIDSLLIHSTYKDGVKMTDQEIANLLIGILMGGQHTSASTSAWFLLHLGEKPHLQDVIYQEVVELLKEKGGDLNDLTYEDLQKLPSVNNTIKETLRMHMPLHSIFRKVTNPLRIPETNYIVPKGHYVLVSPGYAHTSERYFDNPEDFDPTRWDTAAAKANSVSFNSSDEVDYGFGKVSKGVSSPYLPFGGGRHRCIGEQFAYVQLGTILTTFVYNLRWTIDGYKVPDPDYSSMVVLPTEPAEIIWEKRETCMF

O=c1ccc2ccc(COC(Cn3ccnc3)c3ccc(Cl)cc3Cl)cc2o1 (centres undefined)
Activity [1]: Active
MIC [2]: 4 µg/mL (≈ 9.63 µM)
IC50 [3]: 24.4 µM
Activity [4]: Toxic
MIC [5]: 4 µg/mL (≈ 9.63 µM)
inhibition (INH) [6]: Active
Activity [7]: Active
Activity [8]: Active
IC50 [9]: 0.138 µM
MIC [10]: 1 µg/mL (≈ 2.41 µM)
MIC [11]: 2 µg/mL (≈ 4.82 µM)
Activity [12]: Toxic
Activity [13]: Active
inhibition [14]: Active
Activity [15]: Active
MIC [16]: 0.06 µg/mL (≈ 0.144 µM)
Activity [17]: Active
Activity [18]: Active
Activity [19]: 2 log10CFU/ml
MIC [20]: 0.5 µg/mL (≈ 1.2 µM)
MIC [21]: 0.03 µg/mL (≈ 0.0722 µM)
Activity [22]: Active
inhibition [23]: Active
IC50 [24]: 0.227 µM
IC50 [25]: 6.01 µM
Activity [26]: Non-Toxic
remaining at 3 h, 1 µM [27]: 103%
half-life [28]: 15.2 min
Activity [29]: Dose-Dependent Effect
Activity [30]: Active
Activity [31]: Active
Activity [32]: Toxic
Activity [33]: Non-Toxic
MIC [34]: 2 µg/mL (≈ 4.82 µM)
